pEC50: −log10 of the molar value. Active and inactive are the calls of the source. The calls are words filed in the database; no cut-off is given here.
Columns and labels:
[1] = tested on: L929; assay: Anti-necroptotic activity in TZ-induced mouse L929 cells assessed as increase in cell viability preincubated with Z-VAD-FMK followed by mTNFalpha stimulation for 4 hrs and measured after compound addition by CellTiter-Lumi luminescent cell viability assay; format: functional, cell-based
[2] = tested on: HT-29; assay: Anti-necroptotic activity in TSZ-induced human HT-29 cells assessed as increase in cell viability preincubated with Z-VAD-FMK and SM164 for 30 mins followed by TNFalpha stimulation for 12 hrs and measured after compound addition by CellTiter-Lumi luminescent cell viability assay; format: functional, cell-based
[3] = tested on: L929; assay: Anti-necroptotic activity in TZ-induced mouse L929 cells assessed as protection against cell death at 10 uM measured within 5 hrs by Live-cell super-resolution panoramic microscopic analysis; format: functional, cell-based
[4] = biological target: Heat shock protein HSP90 (Homo sapiens) (UniProt P07900+P08238); assay: Inhibition of HSP90 in TSZ-induced human HT-29 cells assessed as reduction in EGFR protein level at 10 uM preincubated with compound followed by Z-VAD-FMK, SM164 and TNFalpha stimulation and measured after 6 hrs by Western blot analysis; format: cell-based
[5] = biological target: T1, Receptor-interacting serine/threonine-protein kinase 1 (Homo sapiens) (UniProt Q13546); assay: Inhibition of RIPK1 phosphorylation at S166 residue in TSZ-induced human HT-29 cells at 10 uM preincubated with compound followed by Z-VAD-FMK, SM164 and TNFalpha stimulation and measured after 6 hrs by Western blot analysis; format: cell-based
T1 sequence (whole entry): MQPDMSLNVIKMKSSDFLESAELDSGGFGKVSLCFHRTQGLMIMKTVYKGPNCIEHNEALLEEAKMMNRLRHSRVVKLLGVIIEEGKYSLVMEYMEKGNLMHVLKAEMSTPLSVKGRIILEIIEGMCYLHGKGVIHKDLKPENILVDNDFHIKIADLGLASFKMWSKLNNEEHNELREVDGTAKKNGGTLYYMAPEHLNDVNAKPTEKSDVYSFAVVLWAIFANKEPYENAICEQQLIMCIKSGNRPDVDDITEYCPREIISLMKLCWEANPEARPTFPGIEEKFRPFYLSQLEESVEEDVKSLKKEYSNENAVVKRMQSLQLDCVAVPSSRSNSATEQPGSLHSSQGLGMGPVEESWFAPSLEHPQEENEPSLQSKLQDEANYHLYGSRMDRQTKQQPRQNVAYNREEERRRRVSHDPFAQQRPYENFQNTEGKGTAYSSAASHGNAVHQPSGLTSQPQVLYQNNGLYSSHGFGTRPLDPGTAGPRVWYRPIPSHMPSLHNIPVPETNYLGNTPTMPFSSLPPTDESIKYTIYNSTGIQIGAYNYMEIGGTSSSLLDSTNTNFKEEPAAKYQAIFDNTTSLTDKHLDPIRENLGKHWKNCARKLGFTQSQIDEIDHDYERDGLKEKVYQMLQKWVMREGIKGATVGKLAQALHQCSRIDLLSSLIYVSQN

[6] = biological target: Receptor-interacting serine/threonine-protein kinase 3 (Homo sapiens) (UniProt Q9Y572); assay: Inhibition of RIPK3 phosphorylation at S227 residue in TSZ-induced human HT-29 cells at 10 uM preincubated with compound followed by Z-VAD-FMK, SM164 and TNFalpha stimulation and measured after 6 hrs by Western blot analysis; format: cell-based
Sequence of Receptor-interacting serine/threonine-protein kinase 3 (Homo sapiens) (Q9Y572 whole entry, looked up, the tested form may be a part): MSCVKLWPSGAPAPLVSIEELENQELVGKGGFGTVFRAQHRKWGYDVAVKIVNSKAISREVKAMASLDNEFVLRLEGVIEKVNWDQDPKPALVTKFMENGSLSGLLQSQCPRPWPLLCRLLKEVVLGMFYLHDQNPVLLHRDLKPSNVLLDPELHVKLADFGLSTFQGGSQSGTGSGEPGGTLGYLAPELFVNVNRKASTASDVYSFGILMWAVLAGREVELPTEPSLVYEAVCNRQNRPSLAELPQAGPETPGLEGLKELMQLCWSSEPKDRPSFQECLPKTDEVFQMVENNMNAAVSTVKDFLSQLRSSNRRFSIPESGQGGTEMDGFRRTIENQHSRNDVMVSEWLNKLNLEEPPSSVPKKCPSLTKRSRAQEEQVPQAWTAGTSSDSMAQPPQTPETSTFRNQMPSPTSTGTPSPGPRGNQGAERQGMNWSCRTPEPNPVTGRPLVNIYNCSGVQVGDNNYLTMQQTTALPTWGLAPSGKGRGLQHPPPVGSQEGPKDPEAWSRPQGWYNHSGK

[7] = biological target: T2, Mixed lineage kinase domain-like protein (Homo sapiens) (UniProt Q8NB16); assay: Inhibition of MLKL phosphorylation at S358 residue in TSZ-induced human HT-29 cells at 10 uM preincubated with compound followed by Z-VAD-FMK, SM164 and TNFalpha stimulation and measured after 6 hrs by Western blot analysis; format: cell-based
T2 sequence (whole entry): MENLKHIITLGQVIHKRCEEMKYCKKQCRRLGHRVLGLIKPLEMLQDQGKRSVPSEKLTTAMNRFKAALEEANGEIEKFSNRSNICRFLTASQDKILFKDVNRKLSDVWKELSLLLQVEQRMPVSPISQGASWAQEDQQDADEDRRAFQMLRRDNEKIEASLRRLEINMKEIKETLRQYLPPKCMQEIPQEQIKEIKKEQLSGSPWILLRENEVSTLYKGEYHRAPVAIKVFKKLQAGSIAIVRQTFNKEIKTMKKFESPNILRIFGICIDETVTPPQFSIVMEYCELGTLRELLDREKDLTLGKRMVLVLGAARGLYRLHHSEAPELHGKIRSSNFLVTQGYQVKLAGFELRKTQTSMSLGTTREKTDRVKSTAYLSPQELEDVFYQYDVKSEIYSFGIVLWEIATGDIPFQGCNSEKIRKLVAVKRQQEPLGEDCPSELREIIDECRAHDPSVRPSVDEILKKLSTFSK

[8] = tested on: RAW264.7; assay: Anti-necroptotic activity in LZ-induced mouse RAW264.7 cells assessed as increase in cell viability preincubated with compound followed by LPS and Z-VAD-FMK stimulation and measured after 16 hrs by CellTiter-Lumi luminescent cell viability assay; format: functional, cell-based
[9] = tested on: HT-29; assay: Effect on RIPK1 protein level in human HT-29 cells at 10 microg/ml incubated for 9 hrs by Western blot analysis; format: functional, cell-based; settings: dose 10.0 µg/ml
[10] = tested on: HT-29; assay: Effect on RIPK3 protein level in human HT-29 cells at 10 microg/ml incubated for 9 hrs by Western blot analysis; format: functional, cell-based; settings: dose 10.0 µg/ml
[11] = tested on: HT-29; assay: Effect on MLKL protein level in human HT-29 cells at 10 microg/ml incubated for 9 hrs by Western blot analysis; format: functional, cell-based; settings: dose 10.0 µg/ml

With `CC1(C)CC[C@]2(C(=O)N3Cc4ccccc4C3)CC[C@]3(C)[C@H](C(=O)C=C4[C@@]5(C)C=C(C#N)C(=O)C(C)(C)[C@@H]5CC[C@]43C)[C@@H]2C1` the pEC50 [1] was under 5.00 and the pEC50 [2] was 5.78.
In the case of `CC1(C)CC[C@]2(C(=O)Nc3nsc4ccccc34)CC[C@]3(C)[C@H](C(=O)C=C4[C@@]5(C)C=C(C#N)C(=O)C(C)(C)[C@@H]5CC[C@]43C)[C@@H]2C1`, the pEC50 [1] was under 5.00 and the pEC50 [2] was 5.40.
`CC1(C)CC[C@]2(C(=O)Nc3cnc4ccccc4n3)CC[C@]3(C)[C@H](C(=O)C=C4[C@@]5(C)C=C(C#N)C(=O)C(C)(C)[C@@H]5CC[C@]43C)[C@@H]2C1` showed a pEC50 [1] of under 5.00 and a pEC50 [2] of 5.62.
Work on `CC1(C)CC[C@]2(C(=O)n3ncc4ccccc43)CC[C@]3(C)[C@H](C(=O)C=C4[C@@]5(C)C=C(C#N)C(=O)C(C)(C)[C@@H]5CC[C@]43C)[C@@H]2C1` yielded a pEC50 [1] of under 5.00 and a pEC50 [2] of under 5.00.
Compound `COC(=O)[C@]12CCC(C)(C)C[C@H]1[C@H]1C(=O)C=C3[C@@]4(C)C5C(C(=O)C(C)(C)[C@@H]4CC[C@@]3(C)[C@]1(C)CC2)N5CC#N` (some centres not stated) has a pEC50 [1] of under 5.00 and a pEC50 [2] of under 5.00.
`CC1(C)CC[C@]2(C(=O)n3cnc4ccccc43)CC[C@]3(C)[C@H](C(=O)C=C4[C@@]5(C)C=C(C#N)C(=O)C(C)(C)[C@@H]5CC[C@]43C)[C@@H]2C1` showed a pEC50 [1] of under 5.00 and a pEC50 [2] of 5.63.
In the case of `CC1(C)CC[C@]2(C(=O)Nc3ccc4occc4c3)CC[C@]3(C)[C@H](C(=O)C=C4[C@@]5(C)C=C(C#N)C(=O)C(C)(C)[C@@H]5CC[C@]43C)[C@@H]2C1`, the pEC50 [1] was under 5.00 and the pEC50 [2] was 5.88.
`CC1(C)CC[C@]2(C(=O)n3nnc4ccccc43)CC[C@]3(C)[C@H](C(=O)C=C4[C@@]5(C)C=C(C#N)C(=O)C(C)(C)[C@@H]5CC[C@]43C)[C@@H]2C1` gave a pEC50 [1] of under 5.00 and a pEC50 [2] of 5.00.
`CC1(C)CC[C@]2(C(=O)Nc3ccc4sncc4c3)CC[C@]3(C)[C@H](C(=O)C=C4[C@@]5(C)C=C(C#N)C(=O)C(C)(C)[C@@H]5CC[C@]43C)[C@@H]2C1` gave a pEC50 [1] of under 5.00 and a pEC50 [2] of 5.63.
`Cn1c(NC(=O)[C@]23CCC(C)(C)C[C@H]2[C@H]2C(=O)C=C4[C@@]5(C)C=C(C#N)C(=O)C(C)(C)[C@@H]5CC[C@@]4(C)[C@]2(C)CC3)nc2ccccc21` gave a pEC50 [1] of under 5.00 and a pEC50 [2] of 5.40.
`CC1(C)CC[C@]2(C(=O)O)[C@H](O)C[C@]3(C)C(=CC[C@@H]4[C@@]5(C)CC[C@H](O)C(C)(C)[C@@H]5CC[C@]43C)[C@@H]2C1` was tested, and the pEC50 [1] was under 5.00 and the pEC50 [2] was under 5.00.
For `CC1(C)CC[C@]2(C(=O)O)CC[C@]3(C)[C@H](C(=O)C=C4[C@@]5(C)C=C(C(N)=O)C(=O)C(C)(C)[C@@H]5CC[C@]43C)[C@@H]2C1`, the pEC50 [1] was under 5.00 and the pEC50 [2] was 5.66.
In the case of `CC1(C)CC[C@]2(C(=O)O)CC[C@]3(C)[C@H](C(=O)C=C4[C@@]5(C)C=C(C#N)C(=O)C(C)(C)[C@@H]5CC[C@]43C)[C@@H]2C1` [BARDOXOLONE], the pEC50 [1] was under 5.00, the pEC50 [2] was 5.60 and the Activity [3] was “inactive”. For the same compound, the inhibition [4] was “Active”, the inhibition [5] was “inactive” and the inhibition [6] was “inactive”. For the same compound, the inhibition [7] was “inactive”.
With `CC1(C)CC[C@]2(C(=O)Nc3ccc4oncc4c3)CC[C@]3(C)[C@H](C(=O)C=C4[C@@]5(C)C=C(C#N)C(=O)C(C)(C)[C@@H]5CC[C@]43C)[C@@H]2C1` the pEC50 [1] was under 5.00 and the pEC50 [2] was 5.48.
With `COC(=O)[C@]12CCC(C)(C)C[C@H]1[C@H]1C(=O)C=C3[C@@]4(C)C5NC5C(=O)C(C)(C)[C@@H]4CC[C@@]3(C)[C@]1(C)CC2` (some centres not stated) the pEC50 [1] was under 5.00 and the pEC50 [2] was under 5.00.
In the case of `CC1(C)CC[C@]2(C(=O)Nc3ccc4ncsc4c3)CC[C@]3(C)[C@H](C(=O)C=C4[C@@]5(C)C=C(C#N)C(=O)C(C)(C)[C@@H]5CC[C@]43C)[C@@H]2C1`, the pEC50 [1] was under 5.00 and the pEC50 [2] was 5.45.
`CC1(C)CC[C@]2(C(=O)NC3(c4ccccc4)CC3)CC[C@]3(C)[C@H](C(=O)C=C4[C@@]5(C)C=C(C#N)C(=O)C(C)(C)[C@@H]5CC[C@]43C)[C@@H]2C1` was tested, and the pEC50 [1] was 5.32, the pEC50 [2] was 5.68 and the Activity [8] was “Dose-dependent-effect”.
Work on `CC1(C)CC[C@]2(C(=O)N3CCC(c4ccccc4)CC3)CC[C@]3(C)[C@H](C(=O)C=C4[C@@]5(C)C=C(C#N)C(=O)C(C)(C)[C@@H]5CC[C@]43C)[C@@H]2C1` yielded a pEC50 [1] of under 5.00 and a pEC50 [2] of 5.24.
For `CC1(C)CC[C@]2(C(=O)Nc3ccc4ccccc4c3)CC[C@]3(C)[C@H](C(=O)C=C4[C@@]5(C)C=C(C#N)C(=O)C(C)(C)[C@@H]5CC[C@]43C)[C@@H]2C1`, the pEC50 [1] was under 5.00 and the pEC50 [2] was 5.02.
Compound `CC1(C)CC[C@]2(C(=O)Nc3ccc4sccc4c3)CC[C@]3(C)[C@H](C(=O)C=C4[C@@]5(C)C=C(C#N)C(=O)C(C)(C)[C@@H]5CC[C@]43C)[C@@H]2C1` has a pEC50 [1] of under 5.00 and a pEC50 [2] of 5.31.
For `CC1(C)CC[C@]2(C(=O)O)CC[C@]3(C)C(=CC[C@@H]4[C@@]5(C)CC[C@H](O)C(C)(C)[C@@H]5CC[C@]43C)[C@@H]2C1` [OLEANOLIC_ACID], the pEC50 [1] was under 5.00 and the pEC50 [2] was under 5.00.
`C[C@@H]1C[C@@H]([C@H](O)CC2CC(=O)NC(=O)C2)C(=O)[C@@H](C)C1` was tested, and the Activity [9] was “inactive”, the Activity [10] was “inactive” and the Activity [11] was “inactive”.
For `CC1(C)CC[C@]2(C(=O)N3CCc4ccccc43)CC[C@]3(C)[C@H](C(=O)C=C4[C@@]5(C)C=C(C#N)C(=O)C(C)(C)[C@@H]5CC[C@]43C)[C@@H]2C1`, the pEC50 [1] was under 5.00 and the pEC50 [2] was under 5.00.
With `CC1(C)CC[C@]2(C(=O)N3CCC(c4ccccc4)C3)CC[C@]3(C)[C@H](C(=O)C=C4[C@@]5(C)C=C(C#N)C(=O)C(C)(C)[C@@H]5CC[C@]43C)[C@@H]2C1` (some centres not stated) the pEC50 [1] was under 5.00 and the pEC50 [2] was 5.42.
For `CC1(C)CC[C@]2(C(=O)Nc3ccc4c(c3)OCO4)CC[C@]3(C)[C@H](C(=O)C=C4[C@@]5(C)C=C(C#N)C(=O)C(C)(C)[C@@H]5CC[C@]43C)[C@@H]2C1`, the pEC50 [1] was under 5.00 and the pEC50 [2] was 6.05.
`CC1(C)CC[C@]2(C(=O)Nc3ccc4[nH]ccc4c3)CC[C@]3(C)[C@H](C(=O)C=C4[C@@]5(C)C=C(C#N)C(=O)C(C)(C)[C@@H]5CC[C@]43C)[C@@H]2C1` was tested, and the pEC50 [1] was under 5.00 and the pEC50 [2] was 5.39.
`CC1(C)CC[C@]2(C(=O)Nc3ccc4scnc4c3)CC[C@]3(C)[C@H](C(=O)C=C4[C@@]5(C)C=C(C#N)C(=O)C(C)(C)[C@@H]5CC[C@]43C)[C@@H]2C1` was tested, and the pEC50 [1] was 5.40, the pEC50 [2] was 5.86 and the Activity [8] was “Dose-dependent-effect”.
For `CC1(C)CC[C@]2(C(=O)Nc3ccc4ncoc4c3)CC[C@]3(C)[C@H](C(=O)C=C4[C@@]5(C)C=C(C#N)C(=O)C(C)(C)[C@@H]5CC[C@]43C)[C@@H]2C1`, the pEC50 [1] was 5.55, the pEC50 [2] was 5.70 and the Activity [8] was “Dose-dependent-effect”.
`CC1(C)CC[C@]2(C(=O)Nc3nc4ccccc4s3)CC[C@]3(C)[C@H](C(=O)C=C4[C@@]5(C)C=C(C#N)C(=O)C(C)(C)[C@@H]5CC[C@]43C)[C@@H]2C1` gave a pEC50 [1] of under 5.00 and a pEC50 [2] of 5.42.
